Measurements taken from the supplement of paper PMC11061612.

Experiments:
A2058 (Melanoma) = experiment: combination Emax (second highest fraction inhibited in the dose matrix, 72 h); higher = more inhibition; extreme values may be limits of the assay
Summary of the method: (§1)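 Cell lines grown in DMEM/F12 or RPMI with 10% FBS were plated in 1536-well plates and held 24 hours at 37°C, 5% CO2 before 72 hours of exposure to two-drug dose matrices, with DMSO typically at 0.2%. CellTiter-Glo 2.0 luminescence gave viability, which was converted to inhibition. Vehicle wells were set to 0 and blank wells to 1. Combination Emax is the second-highest inhibition in the matrix, and Bliss excess is the observed combination effect minus the expected EA + EB − EA·EB, where EA and EB are the single-agent effects.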

[1] = test system: REH (B-Lymphoblastic Leukemia); experiment: as above
Summary of the method: as §1

[2] = test system: RERF-GC-1B (Gastric Carcinoma); experiment: as above
Summary of the method: as §1

[3] = test system: PANC-03-27 (Pancreatic Carcinoma); experiment: as above
Summary of the method: as §1

[4] = test system: 23132-87 (Gastric Carcinoma); experiment: as above
Summary of the method: as §1

[5] = test system: SHP-77 (Small Cell Lung Carcinoma); experiment: as above
Summary of the method: as §1

[6] = test system: OVMIU (Ovarian Carcinoma); experiment: as above
Summary of the method: as §1

[7] = test system: L-1236 (Hodgkin's Lymphoma); experiment: as above
Summary of the method: as §1

[8] = test system: NCI-H446 (Small Cell Lung Carcinoma); experiment: as above
Summary of the method: as §1

[9] = test system: RERF-LC-Sq1 (Squamous Cell Lung Carcinoma); experiment: as above
Summary of the method: as §1

[10] = test system: MKN45 (Gastric Carcinoma); experiment: as above
Summary of the method: as §1

LN-229 (Glioblastoma) = experiment: as above
Summary of the method: as §1

[11] = test system: LXF-289 (Lung Adenocarcinoma); experiment: as above
Summary of the method: as §1

[12] = test system: SK-PN-DW (Other Solid Carcinomas); experiment: as above
Summary of the method: as §1

[13] = test system: VAL (B-Cell Non-Hodgkin's Lymphoma); experiment: as above
Summary of the method: as §1

[14] = test system: HCT-15 (Colorectal Carcinoma); experiment: as above
Summary of the method: as §1

[15] = test system: HSC-39 (Gastric Carcinoma); experiment: as above
Summary of the method: as §1

[16] = test system: NCI-H23 (Lung Adenocarcinoma); experiment: Bliss excess, mean over the matrix (fraction); higher = more synergy
Summary of the method: as §1

[17] = test system: COLO-680N (Esophageal Squamous Cell Carcinoma); experiment: as above
Summary of the method: as §1

[18] = test system: HEC-1 (Endometrial Carcinoma); experiment: as above
Summary of the method: as §1
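Throughout, for Bliss excess, mean over the matrix: after 72 h of two-drug dosing.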

Row | SMILES | combination Emax (A2058 (Melanoma)) | combination Emax [1] | combination Emax [2] | combination Emax [3] | combination Emax [4] | combination Emax [5] | combination Emax [6] | combination Emax [7] | combination Emax [8] | combination Emax [9] | combination Emax [10] | combination Emax (LN-229 (Glioblastoma)) | combination Emax [11] | combination Emax [12] | combination Emax [13] | combination Emax [14] | combination Emax [15] | Bliss excess [16] | Bliss excess [17] | Bliss excess [18]
1 | COc1cc2ncnc(Nc3ccc(F)c(Cl)c3)c2cc1OCCCN1CCOCC1 [Gefitinib] + CC(C)n1c(=O)n(C)c2cnc3cc(F)c(-c4ccc(OCCCN5CCCCC5)nc4)cc3c21 [AZD1390] (first compound max 10 µM, 7x7, partner max 0.3 µM) | 0.119 | 0.145 | 0.265 | 0.373 | 0.127 | 0.0777 | 0.532 | 0.254 | 0.314 | 0.543 | 0.14 | 0.0879 | 0.0907 | 0.184 | 0.527 | 0.352 | 0.217 | -0.0466 | -0.0252 | -0.0442
2 | CS(=O)(=O)CCNCc1ccc(-c2ccc3ncnc(Nc4ccc(OCc5cccc(F)c5)c(Cl)c4)c3c2)o1 [Lapatinib] + C[C@@H](Oc1cc(-c2cnn(C3CCNCC3)c2)cnc1N)c1c(Cl)ccc(F)c1Cl [Crizotinib] (first compound max 10 µM, 7x7, partner max 10 µM) | 0.991 | 0.964 | 0.951 | 0.835 | 0.594 | 0.817 | 0.969 | 0.984 | 0.965 | 0.949 | 0.913 | 0.334 | 1 | 0.938 | 0.808 | 0.925 | 0.981 | -0.0265 | -0.017 | -0.021
3 | CC(=O)c1c(C)c2cnc(Nc3ccc(N4CCNCC4)cn3)nc2n(C2CCCC2)c1=O [Palbociclib] + CC1(C)CCC(CN2CCN(c3ccc(C(=O)NS(=O)(=O)c4ccc(NCC5CCOCC5)c([N+](=O)[O-])c4)c(Oc4cnc5[nH]ccc5c4)c3)CC2)=C(c2ccc(Cl)cc2)C1 [Venetoclax] (first compound max 10 µM, 7x7, partner max 1 µM) | 0.0912 | 0.825 | 0.0488 | 0.131 | 0.17 | 0.671 | 0.149 | 0.611 | 0.462 | 0.436 | 0.486 | 0.0912 | 0.225 | 0.257 | 0.997 | 0.526 | 0.633 | -0.0199 | -0.0445 | -0.0489
4 | CC(=O)c1c(C)c2cnc(Nc3ccc(N4CCNCC4)cn3)nc2n(C2CCCC2)c1=O [Palbociclib] + Cc1c2c(nn1C)CSCc1cc(n(C)n1)CSc1cc(c3ccccc3c1)OCCCc1c(C(=O)O)n(C)c3c-2c(Cl)ccc13 [AZD5991] (first compound max 10 µM, 7x7, partner max 1 µM) | 0.753 | 0.835 | 0.784 | 0.202 | 0.305 | 0.646 | 0.27 | 0.782 | 0.556 | 0.594 | 0.498 | 0.228 | 0.6 | 0.787 | 0.717 | 0.532 | 0.995 | -0.0562 | -0.0341 | -0.0336
5 | CC(=O)c1c(C)c2cnc(Nc3ccc(N4CCNCC4)cn3)nc2n(C2CCCC2)c1=O [Palbociclib] + Cn1cnc2c(F)c(Nc3ccc(Br)cc3Cl)c(C(=O)NOCCO)cc21 [Selumetinib] (first compound max 10 µM, 7x7, partner max 10 µM) | 0.47 | 0.448 | 0.333 | 0.414 | 0.128 | 0.527 | 0.427 | 0.658 | 0.567 | 0.512 | 0.694 | 0.277 | 0.297 | 0.261 | 0.599 | 0.523 | 0.667 | -0.0057 | -0.0207 | -0.0391
6 | COc1cccc(OCCCN)c1-c1cc(Nc2cnc(C#N)cn2)n[nH]1 [Prexasertib] + C=CCn1c(=O)c2cnc(Nc3ccc(N4CCN(C)CC4)cc3)nc2n1-c1cccc(C(C)(C)O)n1 [AZD1775] (first compound max 1 µM, partner max 1 µM) | 0.519 | 1 | 0.887 | 0.925 | 0.939 | 0.949 | 0.814 | 0.786 | 0.995 | 0.906 | 0.865 | 0.738 | 0.834 | 0.968 | 0.921 | 0.972 | 1 | 0.0334 | -0.0054 | 0.109
7 | COc1cccc(OCCCN)c1-c1cc(Nc2cnc(C#N)cn2)n[nH]1 [Prexasertib] + CCc1c2c(nc3ccc(O)cc13)-c1cc3c(c(=O)n1C2)COC(=O)[C@]3(O)CC [SN-38] (first compound max 1 µM, 7x7, partner max 0.3 µM) | 0.924 | 1 | 0.994 | 0.954 | 0.898 | 0.988 | 0.571 | 0.883 | 1 | 0.824 | 0.853 | 0.767 | 0.787 | 0.953 | 0.961 | 0.993 | 1 | -0.0001 | 0.0609 | 0.0893
8 | COc1cccc(OCCCN)c1-c1cc(Nc2cnc(C#N)cn2)n[nH]1 [Prexasertib] + CN(C)CCCOc1ccc(-c2ccc3ncc4c(c3c2)n(C2CCOCC2)c(=O)n4C)cn1 [AZD0156] (first compound max 1 µM, 7x7, partner max 1 µM) | 0.391 | 0.994 | 0.616 | 0.902 | 0.926 | 0.829 | 0.684 | 0.792 | 0.982 | 0.864 | 0.836 | 0.725 | 0.772 | 0.948 | 0.924 | 0.92 | 1 | -0.0245 | -0.0393 | -0.0146
9 | COc1cccc(OCCCN)c1-c1cc(Nc2cnc(C#N)cn2)n[nH]1 [Prexasertib] + C[C@@H]1COCCN1C2=NC(=NC(=C2)C3(CC3)[S@](=N)(=O)C)C4=C5C=CNC5=NC=C4 [AZD6738] (first compound max 1 µM, 7x7, partner max 10 µM) | 0.436 | 1 | 0.543 | 0.902 | 0.908 | 0.836 | 0.596 | 0.799 | 0.975 | 0.899 | 0.822 | 0.791 | 0.762 | 0.937 | 0.952 | 0.95 | 1 | -0.0504 | 0.0342 | -0.0434
10 | COc1cccc(OCCCN)c1-c1cc(Nc2cnc(C#N)cn2)n[nH]1 [Prexasertib] + Cc1cc2ncnn2cc1Nc1ncc2c(n1)n(C1CCOCC1)c(=O)n2C [AZD7648] (first compound max 1 µM, 7x7, partner max 10 µM) | 0.444 | 0.992 | 0.552 | 0.898 | 0.939 | 0.862 | 0.624 | 0.776 | 0.97 | 0.855 | 0.811 | 0.725 | 0.724 | 0.931 | 0.932 | 0.935 | 1 | -0.026 | -0.0491 | 0.0762
11 | COc1cccc(OCCCN)c1-c1cc(Nc2cnc(C#N)cn2)n[nH]1 [Prexasertib] + O=C(c1cc(Cc2n[nH]c(=O)c3ccccc23)ccc1F)N1CCN(C(=O)C2CC2)CC1 [Olaparib] (first compound max 1 µM, 7x7, partner max 10 µM) | 0.508 | 0.987 | 0.552 | 0.918 | 0.87 | 0.819 | 0.592 | 0.831 | 0.963 | 0.833 | 0.854 | 0.551 | 0.783 | 0.937 | 0.93 | 0.883 | 1 | -0.0675 | -0.0652 | -0.0535
12 | COc1cc2c(cc1OCCCCCOc1cc3c(cc1OC)C(=O)N1C=C(C)C[C@H]1C=N3)N=C[C@@H]1CC(C)=CN1C2=O [SG3199] + O=C(c1cc(Cc2n[nH]c(=O)c3ccccc23)ccc1F)N1CCN(C(=O)C2CC2)CC1 [Olaparib] (first compound max 0.001 µM, 7x7, partner max 10 µM) | 0.141 | 0.197 | 0.245 | 0.0754 | 0.3 | 0.223 | 0.0896 | 0.196 | 0.285 | 0.129 | 0.0741 | 0.0777 | 0.119 | 0.393 | 0.57 | 0.264 | 0.185 | 0.0008 | -0.043 | 0.0483
13 | CCc1c2c(nc3ccc(O)cc13)-c1cc3c(c(=O)n1C2)COC(=O)[C@]3(O)CC [SN-38] + CN(C)CCCOc1ccc(-c2ccc3ncc4c(c3c2)n(C2CCOCC2)c(=O)n4C)cn1 [AZD0156] (first compound max 0.3 µM, 7x7, partner max 1 µM) | 0.401 | 1 | 0.788 | 0.773 | 0.845 | 0.48 | 0.32 | 0.76 | 0.818 | 0.743 | 0.815 | 0.283 | 0.599 | 0.92 | 0.944 | 0.943 | 0.964 | -0.0247 | 0.0306 | -0.0374
